Experimental data: the supplement of paper PMC13380429

Key:
Caco-2 [1] = experiment: drug sensitivity score (DSS) for viability; higher = more toxic; extreme values may be limits of the assay; details: 72 h
U2OS [2] = experiment: as above; details: 72 h
Vero E6 [3] = experiment: as above; details: 72 h
HepG2 [4] = experiment: as above; details: 72 h
Calu-3 [5] = experiment: as above; details: 72 h
A549-ACE2 [6] = experiment: phospholipidosis EC50; higher = less potent phospholipidosis inducer
Caco-2 [7] = experiment: relative viability EC50 (midpoint between 100% and the lowest measured viability); higher = less toxic; details: 72 h
U2OS [8] = experiment: as above; details: 72 h
Vero E6 [9] = experiment: as above; details: 72 h
HepG2 [10] = experiment: as above; details: 72 h
Calu-3 [11] = experiment: as above; details: 72 h
[12] = tested on: A549-ACE2 infected with SARS-CoV-2; experiment: SARS-CoV-2 infection rate relative to DMSO; higher = more infection; details: 24 h
[13] = tested on: A549-ACE2 infected with SARS-CoV-2; experiment: morphology score (similarity to uninfected cells); higher = more like uninfected cells; details: 24 h
Caco-2 [14] = experiment: cell viability relative to DMSO; higher = less toxic; details: 72 h
U2OS [15] = experiment: as above; details: 72 h
Vero E6 [16] = experiment: as above; details: 72 h
HepG2 [17] = experiment: as above; details: 72 h
Calu-3 [18] = experiment: as above; details: 72 h
A549-ACE2 [19] = experiment: drug-induced phospholipidosis relative to tamoxifen; higher = more phospholipidosis
[20] = tested on: A549-ACE2 infected with SARS-CoV-2; experiment: cell count relative to DMSO; higher = less toxic; details: 24 h

For O=C(NCCN1CCC2(CC1)C(=O)NCN2c1cccc(F)c1)c1ccc(F)c(F)c1 [ML298], the drug sensitivity score (Caco-2 [1]) was 0, the drug sensitivity score (U2OS [2]) was 0 and the drug sensitivity score (Vero E6 [3]) was 0. For the same compound, the drug sensitivity score (HepG2 [4]) was 0, the drug sensitivity score (Calu-3 [5]) was 0.1 and the “phospholipidosis EC50” value (A549-ACE2 [6]; 24 h) was 7.34 µM. For the same compound, the “phospholipidosis EC50” value (A549-ACE2 [6]; 48 h) was 9.19 µM, the “phospholipidosis EC50” value (A549-ACE2 [6]; 72 h) was 8.25 µM and the “relative viability EC50” value (Caco-2 [7]) was > 10 µM. The “relative viability EC50” value (U2OS [8]) was > 10 µM, the “relative viability EC50” value (Vero E6 [9]) was > 10 µM and the “relative viability EC50” value (HepG2 [10]) was > 10 µM. The “relative viability EC50” value (Calu-3 [11]) was > 10 µM, the SARS-CoV-2 infection rate ([12]; 0.3 µM) was 100% and the SARS-CoV-2 infection rate ([12]; 3 µM) was 83%. For the same compound, the SARS-CoV-2 infection rate ([12]; 10 µM) was 32%, the SARS-CoV-2 infection rate ([12]; 30 µM) was 25% and the morphology score ([13]; 0.3 µM) was -0.08. For the same compound, the morphology score ([13]; 3 µM) was 0.43, the morphology score ([13]; 10 µM) was 0.74 and the morphology score ([13]; 30 µM) was 0.22. For the same compound, the cell viability (Caco-2 [14]; 1 nM) was 98%, the cell viability (Caco-2 [14]; 10 nM) was 99.7% and the cell viability (Caco-2 [14]; 100 nM) was 95.2%. It also gave a cell viability (Caco-2 [14]; 1000 nM) of 91.1%, a cell viability (Caco-2 [14]; 10000 nM) of 89.9% and a cell viability (U2OS [15]; 1 nM) of 103%. It also gave a cell viability (U2OS [15]; 10 nM) of 102%, a cell viability (U2OS [15]; 100 nM) of 104% and a cell viability (U2OS [15]; 1000 nM) of 98.5%. It also gave a cell viability (U2OS [15]; 10000 nM) of 94.2%, a cell viability (Vero E6 [16]; 1 nM) of 101% and a cell viability (Vero E6 [16]; 10 nM) of 105%. For the same compound, the cell viability (Vero E6 [16]; 100 nM) was 102%, the cell viability (Vero E6 [16]; 1000 nM) was 107% and the cell viability (Vero E6 [16]; 10000 nM) was 89.8%. It also gave a cell viability (HepG2 [17]; 1 nM) of 97.3%, a cell viability (HepG2 [17]; 10 nM) of 103% and a cell viability (HepG2 [17]; 100 nM) of 101%. It also gave a cell viability (HepG2 [17]; 1000 nM) of 97.7%, a cell viability (HepG2 [17]; 10000 nM) of 89.1% and a cell viability (Calu-3 [18]; 1 nM) of 96.7%. It also gave a cell viability (Calu-3 [18]; 10 nM) of 104%, a cell viability (Calu-3 [18]; 100 nM) of 101% and a cell viability (Calu-3 [18]; 1000 nM) of 93.9%. It also gave a cell viability (Calu-3 [18]; 10000 nM) of 89.1%, a drug-induced phospholipidosis (A549-ACE2 [19]; 0.3 µM, 24 h) of 1.51% and a drug-induced phospholipidosis (A549-ACE2 [19]; 0.3 µM, 48 h) of 7.03%. The drug-induced phospholipidosis (A549-ACE2 [19]; 0.3 µM, 72 h) was 6.97%, the drug-induced phospholipidosis (A549-ACE2 [19]; 0.833333 µM, 24 h) was 2.03% and the drug-induced phospholipidosis (A549-ACE2 [19]; 0.833333 µM, 48 h) was 7.88%. The drug-induced phospholipidosis (A549-ACE2 [19]; 0.833333 µM, 72 h) was 7.75%, the drug-induced phospholipidosis (A549-ACE2 [19]; 3.33333 µM, 24 h) was 17.2% and the drug-induced phospholipidosis (A549-ACE2 [19]; 3.33333 µM, 48 h) was 17.8%. It also gave a drug-induced phospholipidosis (A549-ACE2 [19]; 3.33333 µM, 72 h) of 18.7%, a drug-induced phospholipidosis (A549-ACE2 [19]; 6.66667 µM, 24 h) of 46.9% and a drug-induced phospholipidosis (A549-ACE2 [19]; 6.66667 µM, 48 h) of 36.7%. The drug-induced phospholipidosis (A549-ACE2 [19]; 6.66667 µM, 72 h) was 39.7%, the drug-induced phospholipidosis (A549-ACE2 [19]; 10 µM, 24 h) was 89.3% and the drug-induced phospholipidosis (A549-ACE2 [19]; 10 µM, 48 h) was 79.7%. The drug-induced phospholipidosis (A549-ACE2 [19]; 10 µM, 72 h) was 90.5%, the drug-induced phospholipidosis (A549-ACE2 [19]; 30 µM, 24 h) was 113% and the drug-induced phospholipidosis (A549-ACE2 [19]; 30 µM, 48 h) was 127%. The cell count ([20]; 0.3 µM) was 102%, the cell count ([20]; 3 µM) was 102% and the cell count ([20]; 10 µM) was 116%. For the same compound, the cell count ([20]; 30 µM) was 95%.
Work on COc1cc2c(NC3CCN(C(C)C)CC3)nc(C3CCCCC3)nc2cc1OCCCN1CCCC1 [UNC0638] yielded a drug sensitivity score (Caco-2 [1]) of 0, a drug sensitivity score (U2OS [2]) of 0.8 and a drug sensitivity score (Vero E6 [3]) of 0. For the same compound, the drug sensitivity score (HepG2 [4]) was 3.1, the drug sensitivity score (Calu-3 [5]) was 4.1 and the “phospholipidosis EC50” value (A549-ACE2 [6]; 24 h) was 0.85 µM. The “phospholipidosis EC50” value (A549-ACE2 [6]; 48 h) was 0.916 µM, the “phospholipidosis EC50” value (A549-ACE2 [6]; 72 h) was 2.15 µM and the “relative viability EC50” value (Caco-2 [7]) was > 10 µM. For the same compound, the “relative viability EC50” value (U2OS [8]) was > 10 µM, the “relative viability EC50” value (Vero E6 [9]) was > 10 µM and the “relative viability EC50” value (HepG2 [10]) was 3.92 µM. For the same compound, the “relative viability EC50” value (Calu-3 [11]) was 3.67 µM, the SARS-CoV-2 infection rate ([12]; 0.3 µM) was 92% and the SARS-CoV-2 infection rate ([12]; 3 µM) was 21%. The SARS-CoV-2 infection rate ([12]; 10 µM) was 13%, the SARS-CoV-2 infection rate ([12]; 30 µM) was 37% and the morphology score ([13]; 0.3 µM) was 0.28. For the same compound, the morphology score ([13]; 3 µM) was 0.76, the morphology score ([13]; 10 µM) was 0.07 and the morphology score ([13]; 30 µM) was -0.22. For the same compound, the cell viability (Caco-2 [14]; 1 nM) was 99.2%, the cell viability (Caco-2 [14]; 10 nM) was 95.3% and the cell viability (Caco-2 [14]; 100 nM) was 98.5%. It also gave a cell viability (Caco-2 [14]; 1000 nM) of 96.7%, a cell viability (Caco-2 [14]; 10000 nM) of 90.3% and a cell viability (U2OS [15]; 1 nM) of 103%. It also gave a cell viability (U2OS [15]; 10 nM) of 104%, a cell viability (U2OS [15]; 100 nM) of 99.7% and a cell viability (U2OS [15]; 1000 nM) of 98.5%. For the same compound, the cell viability (U2OS [15]; 10000 nM) was 79.5%, the cell viability (Vero E6 [16]; 1 nM) was 104% and the cell viability (Vero E6 [16]; 10 nM) was 106%. It also gave a cell viability (Vero E6 [16]; 100 nM) of 101%, a cell viability (Vero E6 [16]; 1000 nM) of 99.2% and a cell viability (Vero E6 [16]; 10000 nM) of 91.5%. It also gave a cell viability (HepG2 [17]; 1 nM) of 91.9%, a cell viability (HepG2 [17]; 10 nM) of 103% and a cell viability (HepG2 [17]; 100 nM) of 107%. It also gave a cell viability (HepG2 [17]; 1000 nM) of 114%, a cell viability (HepG2 [17]; 10000 nM) of 28.9% and a cell viability (Calu-3 [18]; 1 nM) of 108%. It also gave a cell viability (Calu-3 [18]; 10 nM) of 106%, a cell viability (Calu-3 [18]; 100 nM) of 105% and a cell viability (Calu-3 [18]; 1000 nM) of 109%. It also gave a cell viability (Calu-3 [18]; 10000 nM) of 14.4%, a drug-induced phospholipidosis (A549-ACE2 [19]; 0.3 µM, 24 h) of 19% and a drug-induced phospholipidosis (A549-ACE2 [19]; 0.3 µM, 48 h) of 20.5%. It also gave a drug-induced phospholipidosis (A549-ACE2 [19]; 0.3 µM, 72 h) of 16%, a drug-induced phospholipidosis (A549-ACE2 [19]; 0.833333 µM, 24 h) of 47.5% and a drug-induced phospholipidosis (A549-ACE2 [19]; 0.833333 µM, 48 h) of 48.8%. It also gave a drug-induced phospholipidosis (A549-ACE2 [19]; 0.833333 µM, 72 h) of 32%, a drug-induced phospholipidosis (A549-ACE2 [19]; 3.33333 µM, 24 h) of 80.5% and a drug-induced phospholipidosis (A549-ACE2 [19]; 3.33333 µM, 48 h) of 76.7%. It also gave a drug-induced phospholipidosis (A549-ACE2 [19]; 3.33333 µM, 72 h) of 73.7%, a drug-induced phospholipidosis (A549-ACE2 [19]; 6.66667 µM, 24 h) of 93.8% and a drug-induced phospholipidosis (A549-ACE2 [19]; 6.66667 µM, 48 h) of 97.3%. It also gave a drug-induced phospholipidosis (A549-ACE2 [19]; 6.66667 µM, 72 h) of 84.2%, a drug-induced phospholipidosis (A549-ACE2 [19]; 10 µM, 24 h) of 106% and a drug-induced phospholipidosis (A549-ACE2 [19]; 10 µM, 48 h) of 89.8%. The drug-induced phospholipidosis (A549-ACE2 [19]; 10 µM, 72 h) was 95.7%, the drug-induced phospholipidosis (A549-ACE2 [19]; 30 µM, 24 h) was 38.3% and the cell count ([20]; 0.3 µM) was 104%. It also gave a cell count ([20]; 3 µM) of 120%, a cell count ([20]; 10 µM) of 120% and a cell count ([20]; 30 µM) of 85%.
